# Data reported in paper PMC10120551, “Novel Glu-based pyrazolo[3,4-d]pyrimidine analogues: design, synthesis and biological evaluation as DHFR and TS dual inhibitors” (Journal of Enzyme Inhibition and Medicinal Chemistry, 2023).
# Where two headings read alike, the source gives them in different places.
# Legend:
# SR = settings: Leukaemia, five-dose 0.01–100 µM
# NCI-H23 = experiment: cells; settings: Homo sapiens
# MALME-3M [1] = experiment: cells; settings: Homo sapiens
# MALME-3M [2] = settings: Melanoma, five-dose 0.01–100 µM
# MOLT-4 = experiment: cells; settings: Homo sapiens
# UACC-257 = settings: UACC-257, Melanoma; five-dose 0.01–100 µM
# SF-539 = experiment: cells; settings: Homo sapiens
# IGROV1 = experiment: cells; settings: Homo sapiens
# SK-MEL-2 = settings: SK-MEL-2, Melanoma; five-dose 0.01–100 µM
# NCI-H226 = experiment: cells; settings: Homo sapiens
# NCI-H460 = experiment: cells; settings: Homo sapiens
# Ovarian cancer subpanel = experiment: NCI five-dose screen, subpanel MG-MID; type: cell-based, human
# Method: (§1) (Figures S53–S56 in Supporting Information). This assay evaluates GI50, TGI, and LC50 parameters, as cited in Table 1. Their values correspondingly represent the GI level, cytostatic impact, and cytotoxicity parameter. Furthermore, based on the GI50 values, the mean graph midpoints (MG-MID) for both full NCI 59 cell panel and subpanel cancer cell lines were evaluated, affording a median potency parameter for the examined compound 6i, as depicted in Table 2.
# (§2) Moreover, the selectivity index (SI) of the most efficient analogue 6i was calculated from the division of full-panel MG-MID by subpanel MG-MID. A value greater than 6 implies high selectivity, whereas a ratio from 3 to 6 denotes moderate selectivity. Otherwise, the compound is referred to as non-selective.[24] […] Therefore, the outstanding anti-cancer profile of compound 6i against the herein examined NCI-59 cell panels inspired us to explore its mechanism of action further.
# (§3) The designed analogues were submitted to NCI-Chemotherapeutic Agents Repository (MD, USA) for screening on a panel of 59 cancer cell lines. All compounds were initially examined at 10 µM concentration (Single-Dose Screen), and then the most efficient analogue 6i was screened further at 0.01–100 µM (Five-Dose Screen). The screening procedures were performed according to NCI-Drug Evaluation Branch protocol using SRB protein assay, as described previously[21]^,[66]. The experimental procedures were detailed in the Supporting Information.
# CNS cancer subpanel = experiment: NCI five-dose screen, subpanel MG-MID; type: cell-based, human
# Method: as §1, §2, §3
# Leukaemia subpanel = experiment: NCI five-dose screen, subpanel MG-MID; type: cell-based, human
# Method: as §1, §2, §3
# Melanoma subpanel = experiment: NCI five-dose screen, subpanel MG-MID; type: cell-based, human
# Method: as §1, §2, §3
# BT-549 [3] = settings: BT-549, Breast cancer; five-dose 0.01–100 µM
# T-47D = settings: Breast cancer, five-dose 0.01–100 µM
# BT-549 [4] = experiment: cells; settings: Homo sapiens
# SK-MEL-28 = experiment: cells; settings: Homo sapiens
# SW-620 = experiment: cells; settings: Homo sapiens
# SF-268 = settings: SF-268, CNS cancer; five-dose 0.01–100 µM
# recombinant hDHFR = recombinant hDHFR (Homo sapiens, UniProt P00374); experiment: DHFR inhibitory assay
# Chain of recombinant hDHFR (P00374 whole entry): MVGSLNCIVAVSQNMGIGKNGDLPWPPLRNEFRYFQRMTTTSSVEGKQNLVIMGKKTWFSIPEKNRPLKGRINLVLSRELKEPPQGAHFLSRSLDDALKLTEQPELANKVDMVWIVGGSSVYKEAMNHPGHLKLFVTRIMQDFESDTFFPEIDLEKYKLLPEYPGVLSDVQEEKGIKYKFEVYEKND
# Method: DHFR inhibition assay kit (BioVision, K247–100) supplied with recombinant hDHFR was utilised in this assay. The assay was performed as instructed in assay kit[32]. Briefly, in a 96-well clear plate, serial dilutions of the test compound (2 μL) were loaded. […] An assay buffer (100 µl) was used as a Background Control. Then, 40 μL of diluted NADPH in assay buffer (40-fold dilution) was added and mixed well. At 25 °C in the dark, the plate was incubated for 15 min. […] Instantaneously, the absorbance was read at 340 nm for 10–20 min at 25 °C in kinetic mode by Robonik ELISA plate reader. Finally, the activity and relative inhibition percentages were measured using the equations indicated in the assay kit[33–35].
# MDA-MB-231/ATCC = settings: Breast cancer, five-dose 0.01–100 µM
# 786-0 = experiment: cells; settings: Homo sapiens
# SNB-19 = settings: SNB-19, CNS cancer; five-dose 0.01–100 µM
# LOX IMVI = settings: Melanoma, five-dose 0.01–100 µM
# full NCI 59 cell panel = experiment: cells; settings: Homo sapiens
# K-562 = settings: K-562, Leukaemia; five-dose 0.01–100 µM
# HCT-15 = experiment: cells; settings: Homo sapiens
# KM12 = settings: KM12, Colon cancer; five-dose 0.01–100 µM
# CCRF-CEM = experiment: cells; settings: Homo sapiens
# TK-10 = experiment: cells; settings: Homo sapiens
smiles,measurement,setting,value
CCOC(=O)CC[C@H](NC(=O)c1ccc(NC(=O)Cn2cnc3c(c(C)nn3-c3ccc(Br)cc3)c2=O)cc1)C(=O)OCC [Compound 6i],TGI,SR,>100 µM
same,GI50,NCI-H23; NCI-H23,7.64 µM
same,CC50,"NCI-H23; NCI-H23, read-out: LC50",82.1 µM
same,GI50,MALME-3M [1],15 µM
same,CC50,MALME-3M [1]; read-out: LC50,59.4 µM
same,TGI,MALME-3M [2],29.9 µM
same,GI50,MOLT-4; MOLT-4,> 100 µM
same,CC50,"MOLT-4; MOLT-4, read-out: LC50",> 100 µM
same,TGI,UACC-257,>100 µM
same,GI50,SF-539; SF-539,14.8 µM
same,CC50,"SF-539; SF-539, read-out: LC50",73.6 µM
same,GI50,IGROV1; IGROV-1,23.9 µM
same,CC50,"IGROV1; IGROV-1, read-out: LC50",> 100 µM
same,TGI,SK-MEL-2,89.1 µM
same,GI50,NCI-H226,4.54 µM
same,GI50,NCI-H460; NCI-H460,13.7 µM
same,CC50,"NCI-H460; NCI-H460, read-out: LC50",86.9 µM
same,MG-MID,"Ovarian cancer subpanel; Ovarian cancer subpanel, based on GI50",16.52 µM
same,Selectivity index,"Ovarian cancer subpanel; Ovarian cancer, full-panel MG-MID / subpanel MG-MID",1.23
same,MG-MID,"CNS cancer subpanel; CNS cancer subpanel, based on GI50",12.70 µM
same,Selectivity index,"CNS cancer subpanel; CNS cancer, full-panel MG-MID / subpanel MG-MID",1.61
same,MG-MID,"Leukaemia subpanel; Leukaemia subpanel, based on GI50",68.03 µM
same,Selectivity index,"Leukaemia subpanel; Leukaemia, full-panel MG-MID / subpanel MG-MID",0.30
same,MG-MID,"Melanoma subpanel; Melanoma subpanel, based on GI50",16.8 µM
same,Selectivity index,"Melanoma subpanel; Melanoma, full-panel MG-MID / subpanel MG-MID",1.21
same,TGI,BT-549 [3],>100 µM
same,TGI,T-47D,>100 µM
same,GI50,BT-549 [4]; BT-549,4.54 µM
same,CC50,"BT-549 [4]; BT-549, read-out: LC50",> 100 µM
same,GI50,SK-MEL-28; SK-MEL-28,10.1 µM
same,CC50,"SK-MEL-28; SK-MEL-28, read-out: LC50",50.2 µM
same,GI50,SW-620; SW-620,8.98 µM
same,CC50,"SW-620; SW-620, read-out: LC50",> 100 µM
same,TGI,SF-268,32.8 µM
same,IC50,recombinant hDHFR,2.41 ± 0.13 µM
same,TGI,MDA-MB-231/ATCC,26.8 µM
same,GI50,786-0; 786-0,8.66 µM
same,CC50,"786-0; 786-0, read-out: LC50",> 100 µM
same,TGI,SNB-19,27.3 µM
same,TGI,LOX IMVI,20.6 µM
same,GI50,"full NCI 59 cell panel; range over HOP-62, A549/ATCC, HOP-92, NCI-H23, NCI-H226, SF-268, HCT-116, OVCAR-8, LOX IMVI, DU-145, PC-3, 786-0, BT-549, MCF7",3.93 to 9.85 µM
same,GI50,full NCI 59 cell panel; range over the residual examined cell lines,10.1 to 71 µM
same,CC50,"full NCI 59 cell panel; read-out: LC50, most of the examined cancer cells",> 100 µM
same,CC50,"full NCI 59 cell panel; read-out: LC50, range over the 23 cell lines listed in b28 as exceptions",47 to 96.1 µM
same,TGI,K-562,>100 µM
same,GI50,HCT-15; HCT-15,26 µM
same,CC50,"HCT-15; HCT-15, read-out: LC50",> 100 µM
same,TGI,KM12,>100 µM
same,GI50,CCRF-CEM,14.5 µM
same,CC50,CCRF-CEM; read-out: LC50,> 100 µM
same,GI50,TK-10; TK-10,31.3 µM
same,CC50,"TK-10; TK-10, read-out: LC50",> 100 µM
